The record followed here is patent publication US8871706B2, “Method for inhibiting inflammation and pre-inflammatory cytokine/chemokine expression using a ghrelin analogue” (Ipsen Pharma S.A.S., priority 2007, dated 2014).

In one test the test system is serum cytokines. In words: Continuous infusion of ghrelin analogues in 5/6 nephrectomized rats: serum cytokines. Format: in vivo. To be noted: 150 ηmol/kg/day s.c. osmotic mini-pump; for change of serum IL-10 relative to the nephrectomy/saline group: CKD rats; for serum GM-CSF / serum IL-1-α (second listing) / serum IL-1α / serum IL-6 / serum IL-10 (anti-inflammatory cytokine) / serum TNF-α: nephrectomized rats. As for the experimental part:
(§1) F344/NTacfBR male rats (Taconic Farms, Inc., Germantown, N.Y., U.S.A.) were housed two to a cage, fed rat chow (diet 5001, Purina Mills, Inc., St. Louis, Mo., U.S.A.) and acclimated for at least three days prior to use.
(§2) A 5/6 nephrectomy was performed in two stages. The test subjects were initially anesthetized with standard rat cocktail and placed prone in a clean environment. A 1 cm posterior incision was made on the right flank through which the right kidney was located. For animals undergoing nephrectomy, the renal capsule was removed and the upper and lower third of the kidney was transected and the resultant wound cauterized leaving the middle third of the kidney with the renal artery and vein intact. For animals receiving a sham operation, the renal capsule was opened up and cauterized to simulate the manipulations performed in the nephrectomy. The external surgical wounds were closed by suturing and the test subject was isolated to facilitate recovery.
(§3) Nine days following the initial surgery, the animals were again anesthetized and placed prone in the surgical area. A 1 cm incision was made on the left side of the subject's abdomen and the left kidney was isolated. For animals undergoing nephrectomy, the renal capsule was removed and the vasculature was tied off by suturing. The vascular bundle was then transected distal to the suture and the entire kidney removed. Any residual bleeding was cauterized. For animals in the sham group, the renal capsule was removed and cauterized. The external surgical wounds were closed with suture. While still under anesthesia, osmotic mini-pumps were placed in all test subjects. A 1 cm incision was made in the midline overlying the posterior thorax at the level of the forelimbs and the underlying sub-cutaneous space was opened via blunt dissection. The osmotic minipumps were placed inside and the incision and closed with suture. This procedure marked the first day (“Day 0”) of treatment.
(§4) Each compound was dissolved in vehicle solution (2% inactivated rat serum, 5% Tween-80) sonicated and filtered through a […] syringe filter.
Rat serum samples were collected and tested for cytokines IL-1α, IL-1β, IL-2, IL-4, IL-6, IL-10, GM-CSF, INF-γ and TNF-α using a Bio-Plex rat cytokine 9-Plex assay (Bio-Rad Laboratories, Hercules, Calif., U.S.A.) according to the manufacturer's instructions for use thereof.
The pre-mixed standards were reconstituted in 0.5 ml of a Bio-Plex […] serum standard diluent generating a stock concentration of 50,000 pg/ml for each cytokine. The standard stock was serially diluted in the Bio-Plex rat serum standard diluent to generate eight points for a standard curve. The assay was performed in a 96 well filtration plate supplied with the assay kit. Pre-mixed beads (50 μl) coated with target capture antibodies were transferred to each well of the filtration plate and washed twice with Bio-Plex wash buffer. The samples were diluted (1:4) in the Bio-Plex serum sample diluent. Pre-mixed standards or diluted samples (50 μl) were added to each well containing washed beads. The plate was shaken and incubated at room temperature for thirty minutes at a low speed (300 rpm). After incubation and washing, pre-mixed biotin conjugated detection antibodies were added to each of the wells. The plate was thereafter incubated for approximately thirty minutes and shaken at a low speed (300 rpm). After incubation and washing, strepavidin-PE were added to each well. The incubation was terminated after shaking for ten minutes at room temperature. After washing, the beads were re-suspended in 125 μl of Bio-Plex assay buffer. Beads were read on the Bio-Plex suspension array system (Bio-Rad Laboratories, Hercules, Calif., U.S.A.). The accumulated data was analyzed using Bio-Plex Manager software version 3.0 with 5 PL curve fitting.
One-way ANOVA was used to determine differences among the nephrectomy and sham groups using a Bonferoni post-hoc test; P<0.05 was considered significant. […]

Test [1] relates to human peripheral blood monocytes. Briefly: LPS/cytokine assay in human peripheral blood mononuclear cells. Format: cell-based. The following applies: 30 minutes pre-incubation, LPS 100 ηg/ml, 6 hours; ELISA. The procedure:
Human Peripheral Blood Mononuclear Cells (cat #7200) were procured for the assay (Seracare Diagnostics, Gaithersburg, Md., U.S.A.). Frozen vials were thawed and washed once with Phosphate Buffered Saline (Thermo Fisher Scientific, Inc., Waltham, Mass., U.S.A.). Cells were then counted and plated into 96-well dishes. […] Plates were analyzed with a Spectramax® Reader using Softmax Pro software (Spectramax, Inc., Sunnyvale, Calif., U.S.A.).
In general terms: In an ELISA, binding on a coated surface is turned into a signal by an enzyme label.

Test [2] has as its system IL-1β and IL-1RI gene expression in the hypothalamus and brainstem. Briefly: Continuous infusion in 5/6 nephrectomized rats: central inflammatory transcripts. Format: in vivo. The following applies: Sham/Saline 1.00. As for the experimental part: as §1, §2, §3, §4
After sacrifice, blood, brain, stomach and muscle were collected. A subset of the rats had their hypothalami dissected out, preserved in RNAlater solution (Applied Biosystems, Inc., Foster City, Calif., U.S.A.) and stored at −70° C. for extraction of RNA and RT-PCR analysis. A subset of the rats had their hypothalami and brainstems dissected out, preserved in RNAlater solution and stored at −70° C. for extraction of RNA and RT-PCR analysis. Hypothalamic blocks were dissected by making coronal transections at the optic chiasm and at the intersection between the hypothalamus and the mammalary bodies and sagital transections along the optic tracks. Cortex was then removed at the level of the corpus callosom. Brainstem blocks were dissected by removal of the cerebellum and coronal transections at the rostral border of the pons and at the spinal cord.
One-way ANOVA was used to determine differences among the nephrectomy and sham groups using a Bonferoni post-hoc test; P<0.05 was considered significant. In the case of the serum cytokines, each individual set of data was considered by ANOVA and the composite of all of the cytokine levels were considered together after normalizing all levels to the Sham/Saline group using a mixed model analysis for a trend for cytokines values among the different groups. This model takes into account the propensity of some animals to have higher or lower cytokine levels across all of the different cytokines and accounts for within-sample variability.

The next test relates to LPS-induced endotoxemia. Briefly: In vivo LPS/cytokine assay in a mouse model. On the set-up: species or system mice. The following applies: 5 and 10 nmoles i.p. 10 minutes prior to 5 μg LPS i.p.; serum 2 hours post-LPS.
In test [3] the test system is TNBS-induced colitis. Briefly: Acute colon inflammation model (TNBS-induced colitis). In kind it is in vivo, mice. As for the experimental part: In an effort to examine the ability of the novel ligands of native ghrelin of the instant application to ameliorate inflammation of the colon in vivo, inflammation was induced in a mouse model and thereafter said subjects were treated with a novel ghrelin analogue of the instant application.
(§5) Male SJL mice (Charles River Laboratories, Wilmington, Mass., U.S.A.) approximately 5 to 6 weeks of age were employed. The guidelines proposed by the committee for the Care of Laboratory Animal Resources Commission of Life Sciences-National Research Council were followed to minimize animal pain and distress. Each animal received rodent laboratory chow and ad libitum water.
Acute colon inflammation was induced in the test subjects by administering 3 mg of […] (Thermo Scientific Pierce Protein Research Products, Waltham, Mass., U.S.A.) (TNBS) in 50% ethanol via a catheter inserted intrarectally from the test subject's anus. Control mice received the same volume of 50% ethanol without the TNBS. […] Five mice from both groups were sacrificed 4 days post-TNBS-induced challenge.
Body weight for all test subjects was measured every day. FIG. 27 Serum samples were tested for interferon-gamma by ELISA (Millipore, Inc., Billerica, Mass., U.S.A.). […]
The colons of the sacrificed test subjects at day 4 and day 10 were removed and measured.

Test [4] has as its system TNBS-induced colitis. In words: Established colitis model (TNBS). In kind it is in vivo, mice. The following applies: single 50 nM dose ip on days 6, 7 and 8 post-TNBS. As for the experimental part:
In an effort to examine the ability of the novel ligands of native ghrelin of the instant application to reduce inflammation of the colon in vivo, inflammation was induced in a mouse model and thereafter said subjects were treated with a novel ghrelin analogue of the instant application.
as §5
Acute colon inflammation was induced in the test subjects by administering 3 mg of […] (Thermo Scientific Pierce Protein Research Products, Waltham, Mass., U.S.A.) (TNBS) in 50% ethanol via a catheter inserted intrarectally from the test subject's anus on the day the study commenced and then again approximately 7 days thereafter. Control mice received the same volume of 50% ethanol without the TNBS.
Body weight for all test subjects was measured every day. Macroscopic evaluation of colon inflammation was performed on the 9th day after inducing TNBS-induced colitis.
The colons of the sacrificed test subjects were removed and measured.

A further test relates to 3T3-L1 adipocytes. Briefly: In vitro cytokine lipolysis assay in 3T3-L1 adipocytes (TNF-α induced lipolysis, glycerol content). In kind it is cell-based. To be noted: 1, 10 or 100 ηM, 10 minutes pre-treatment; 20 ηg/ml recombinant murine TNF-α, 24 hours. The procedure: The claimed compounds were tested for their ability to ameliorate cytokine levels. […] In addition, it has been determined that extracellular glucose is required for TNF-α mediated adipocyte lipolysis (Green, A. et al., Diabetes, (2004), 53 (1):74-81). Glycerol, generated by triglyceride breakdown, is released into the extracellular space through aquaporin adipose. Extracellular glycerol is easily assayed by incubation with glycerol kinase (to produce glycerol phosphate), glycerol phosphate oxidase (to produce H2O2), and horseradish peroxidase in the presence of a calorimetric substrate. As such, free glycerol can be assayed as a marker for adipolysis.
In the assay protocol, 3T3-L1 adipocytes were permeabilized and preincubated with the ghrelin analogues of the present invention. In particular, 3T3-L1 preadipocytes were obtained from 3T3-L1 fibroblasts (ATCC Deposit No. CL-173 described in U.S. Pat. No. 4,003,789). […]
The glycerol content was determined using an Adipolysis Assay Kit (Millipore Corporation, Temecula, Calif., U.S.A.).

Test [5] has as its system mouse peritoneal macrophages. Briefly: LPS-stimulated cytokine secretion from mouse peritoneal macrophages. Format: cell-based. The following applies: in vitro. As for the experimental part:
Mouse peritoneal macrophages were elicited by intraperitoneal (i. p.) injection of 2 ml of 4% Brewer's thioglycollate medium (Difco, Detroit, Mich., U.S.A.) into male BALB/c mice aged 6 to 10 weeks (Ace Animals, Inc., Boyertown, Pa., U.S.A.). Peritoneal exudate cells were obtained 72 hours after injection by peritoneal lavage with ice-cold RPMI 1640 medium (Sigma-Aldrich, St. Louis, Mo., U.S.A.). Peritoneal exudate cells containing lymphocytes and macrophages were washed twice and re-suspended in ice-cold RPMI 1640 medium supplemented with 2% heat-inactivated fetal calf serum “FCS” (Life Technologies, Rockville, Md., U.S.A.) and were seeded in flat-bottomed 96-well microtiter plates (Corning Glass, Corning, N.Y., U.S.A.) at 8×10^4 cells per well in a final volume 200 μl. The cells were incubated at 37° C. for 2 hours to adhere.

Method for LPS-induced endotoxemia: In an effort to examine the ability of the novel ligands of native ghrelin of the instant application to modulate inflammatory cytokine expression in vivo, mice were treated with ghrelin prior to an LPS administration.
Male 22-24 g CD1 mice (Charles River Laboratories, Wilmington, Mass., U.S.A.) were used.
Mice were sacrificed 2 hours post-LPS challenge and serum was collected via heart puncture and stored −80° C.
Mouse serum was used with Lincoplex™ custom 7-plex immunoassay for TNF-α (FIG. 3), IL-1β, IL-6 (FIG. 6), IL-10 and GM-CSF (Linco Research, Inc., St. Charles, Mo., U.S.A.). The assay was performed according to the manufacturer's instructions. Plates were run on a Luminex® 200 analyzer (Luminex, Austin, Tex., U.S.A.) using Masterplex CT™ v1.0 software for acquisition and Masterplex™ QT v2.5 software for analysis (MiraiBio, Hitachi Software Engineering Co., Yokohama, JP).

Turning to “(Aib^2, Glu^3(NH-hexyl))hGhrelin(1-28)-NH2 (GXEFLSPEHQRVQQRKESKKPPAKLQPR; Aib2, Glu3 NH-hexyl, C-terminal amide; Ghrelin Analogue) [Example #13]”, in the test on serum cytokines, the “change of serum IL-10 relative to the nephrectomy/saline group” value is “significant increase”, the “serum GM-CSF” value is 7.01+/−2.05, the “serum IL-1-α (second listing)” value was 57.37+/−7.48 and the “serum IL-1α” value is listed as 3.50+/−2.49. Also, in the test on serum cytokines, the “serum IL-6” value is on record as 83.65+/−21.71, the “serum IL-10 (anti-inflammatory cytokine)” value is given as 594.83+/−55.22 and the “serum TNF-α” value is listed as 47.04+/−3.36. For the same substance, in test [1], the “LPS-stimulated IL-6 secretion” value is “inhibition”, the “LPS-stimulated IL-10 secretion” value is given as “inhibition” and the “LPS-stimulated TNF-α secretion” value is listed as “inhibition”.
For “H-Gly-Ser-Ser-Phe-Leu-Ser-Pro-Glu-His-Gln-Arg-Val-Gln-Gln-Arg-Lys-Glu-Ser-Lys-Lys-Pro-Pro-Ala-Lys-Leu-Gln-Pro-Arg-NH2 [hGhrelin(1-28)-NH2, reference compound]”, in the test on serum cytokines, the “serum GM-CSF” value is given as 5.24+/−1.93, the “serum IL-1-α (second listing)” value is on record as 49.52+/−10.03, the “serum IL-1α” value is recorded as 3.92+/−2.39 and the “serum IL-6” value was 52.42+/−18.68. Further, in the test on serum cytokines, the “serum IL-10 (anti-inflammatory cytokine)” value is 242.41+/−27.51 and the “serum TNF-α” value is listed as 34.71+/−14.00. Moreover, in test [2], the “expression of IL1-RI in the brainstem” value was 0.72+/−0.12, the “transcript levels of IL-1R in the hypothalamus” value is recorded as 0.78+/−0.26, the “transcript levels of IL-1β in the brainstem” value was 1.27+/−0.60 and the “transcript levels of IL-1β in the hypothalamus” value is listed as 0.98+/−0.46.
With “H-Inp-D-Bal-D-Trp-Phe-Apc-NH2 [Example #27]”, in the test on serum cytokines, the “change of serum IL-10 relative to the nephrectomy/saline group” value was “significant increase”, the “serum GM-CSF” value is 8.01+/−2.83, the “serum IL-1-α (second listing)” value is 46.58+/−9.87 and the “serum IL-1α” value is 3.84+/−1.62. For the same substance, in the test with serum cytokines, the “serum IL-6” value is given as 98.41+/−36.66, the “serum IL-10 (anti-inflammatory cytokine)” value was 419.26+/−38.71 and the “serum TNF-α” value was 45.81+/−6.23. The “anti-inflammatory effect on LPS-induced endotoxemia (TNF-α, IL-6, IL-10 and IL-13 expression in vivo)” value in the test with LPS-induced endotoxemia was “inhibition of TNF-α, IL-6, IL-10 and IL-13 expression”. Besides, the “IFN-γ production in vivo” value in the test with TNBS-induced colitis [3] (5 nmolar and 50 nmolar dose ip approximately 12 hours after TNBS, serum ELISA, day 4) was “inhibited”. The “colon size (length) of sacrificed test subjects” value in the test with TNBS-induced colitis [3] (day 4 and day 10, 5 nM or 50 nM dose ip) is on record as “smaller colons”. In test [1], the “LPS-stimulated IL-6 secretion” value is listed as “inhibition”, the “LPS-stimulated IL-10 secretion” value is recorded as “inhibition” and the “LPS-stimulated TNF-α secretion” value is “inhibition”. Also, in test [2], the “expression of IL1-RI in the brainstem” value is reported as 0.75+/−0.18, the “transcript levels of IL-1R in the hypothalamus” value is 0.77+/−0.17, the “transcript levels of IL-1β in the brainstem” value was 1.34+/−0.46 and the “transcript levels of IL-1β in the hypothalamus” value is recorded as 1.54+/−0.42. For the same substance, in the test on TNBS-induced colitis [4], the colitis in vivo entry is given as “effectively inhibited” and the “colon size (length) of sacrificed test subjects” value is reported as “smaller colons”. For the same substance, the “lipolysis in the adipocytes induced by TNF-α (glycerol content)” value with 3T3-L1 adipocytes was “significantly inhibited”. Also, in test [5], the “LPS-stimulated IL-6 secretion” value is recorded as “inhibition” and the “LPS-stimulated TNF-α secretion” value was “inhibition”.
